Measurements as given in patent US5443986A, “Enzymatic analysis using substrates that yield fluorescent precipitates” (Molecular Probes, Inc., priority 1993, dated 1995).

What was measured:
[1] = Critical concentration (Mc) for precipitation of the enzymatic product; type: physicochemical; conditions: product of hydrolysis by excess alkaline phosphatase, 0.1M TRIS pH 10.3
Procedure: 2D) Critical concentration: Various concentrations of 2-(4'-methoxy-2'-phosphoryloxyphenyl)quinazolinone (3e) were reacted with 50 μL of excess alkaline phosphatase in 200 μL solution of 0.1M TRIS≥pH 10.3 containing 50 mM NaCl, 10 mM MgCl2 and 0.1 mM ZnCl2. The resulting precipitate and fluorescence were measured in a CytoFluor fluorescence plate reader (Millipore) with excitation at 360 nm, emission at 460 nm using sensitivity setting 3.
3). Determination of the critical concentration and pH dependence for the precipitation. The critical concentration (Mc, in units of mmoles) and the pH dependence (pKa) for precipitation are both important parameters for judging the precipitation properties of the enzymatic products obtained from the subject substrates. Below the critical concentration the product will not be detected as a fluorescent precipitate. Obviously these two parameters contribute to the precipitation in a correlated way. As a simple approach, one may define the critical concentration as the concentration necessary for the precipitation at a high pH where all of the phenol group is ionized. Similarly, acidification by lowering the pH results in precipitation at a concentration below the critical concentration that is obtained at high pH to an extent that is related to the pKa of the phenolic group. It is a characteristic of the preferred substrates that only the product precipitate is fluorescent. In this case the precipitate is quantitated by its fluorescence which results in a correlation of the fluorescence with the degree of precipitation.
To obtain the critical concentration for one product the phosphatase substrate (1e) (200 μL) in a 96-well plate is added to 0.1M TRIS, pH 10.3, containing 50 mM NaCl, 10 mM MgCl2 and 0.1 mM ZnCl2 to yield a final concentration of 0.1 to 10 mM. 50 μL of a 1 mg/mL solution of alkaline phosphatase is then added. The fluorescence development is complete after 5 minutes as measured in using a CytoFluor™ 2300 fluorescence plate reader (Millipore, Bedford, Mass.). A concentration showing appreciable fluorescence is determined as the critical concentration.

HEp-2 cells = experiment: Enzyme-mediated immunohistochemical detection (SLE kit) on fixed HEp-2 cells; type: cell-based, human; conditions: 30 minute incubation, 100 mM MOPS pH 7.5, biotinylated alkaline phosphatase
Procedure: 1 ). Cells and Detection Kit. […] The kit includes slides containing wells of fixed HEp-2 cells (human epithelial cells) and a positive control consisting of anti-DNA antibodies isolated from humans with the disease. Normally, the slides are incubated with sera from patients and then probed with fluorescein-conjugated anti-human antibodies. Using this method, the nuclei of those cells that have been incubated with SLE-positive sera appear to have typical morphology that is identified by their green fluorescence using standard fluorescence microscopy whereas the negative controls have no fluorescence.
2). Sample Preparation. A four-step incubation protocol is used to prepare the slides. All reagents are diluted in 1% bovine serum albumin (BSA) in TRIS-buffered saline, pH 7.5 (TBS; 100 mM NaCl, 100 mM TRIS). Each incubation is 1/2 hour. Slides are washed three times with TBS between incubations. A typical procedure consists of the following steps:
1. The wells are incubated with either SLE-positive or -negative human sera (provided in the kit).
2. The wells are incubated with biotinylated goat anti-human ([…]).
3. The wells are incubated with streptavidin (50 μg/mL), a reagent that has four binding sites for biotin. Excess binding sites are available for binding the next reagent.
4. The wells are incubated with a biotinylated enzyme that will remove BLOCK from the subject substrates. […]

alkaline phosphatase = alkaline phosphatase (Bos taurus, UniProt P19111); experiment: Detection of enzyme on non-denaturing gels after electrophoresis; type: biochemical
alkaline phosphatase, sequence (P19111 20-506 limits assumed): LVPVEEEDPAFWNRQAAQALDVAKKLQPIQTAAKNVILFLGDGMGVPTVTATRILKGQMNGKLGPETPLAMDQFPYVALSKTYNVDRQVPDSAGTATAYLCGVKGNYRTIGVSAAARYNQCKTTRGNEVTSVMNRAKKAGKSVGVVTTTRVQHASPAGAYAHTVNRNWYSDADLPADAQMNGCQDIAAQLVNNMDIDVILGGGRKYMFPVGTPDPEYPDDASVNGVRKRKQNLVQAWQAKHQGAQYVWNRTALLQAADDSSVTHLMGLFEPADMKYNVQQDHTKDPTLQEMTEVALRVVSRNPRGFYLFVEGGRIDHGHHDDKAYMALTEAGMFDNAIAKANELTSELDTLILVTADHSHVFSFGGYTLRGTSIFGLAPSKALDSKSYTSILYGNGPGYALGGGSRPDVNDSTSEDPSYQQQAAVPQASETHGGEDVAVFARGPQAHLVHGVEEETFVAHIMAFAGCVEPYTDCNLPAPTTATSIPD
Procedure: 1 ). Detecting enzymes on native gels using precipitating substrates. Gel electrophoresis is a common method for identifying proteins in fluids and tissue homogenates. In native gel electrophoresis, the proteins retain their activity during the process of separation and thus can hypothetically be identified by activity assays. By incubating the native gel with various precipitating substrates specific for the analyte enzyme, one can identify whether the enzyme is present in the loaded sample. These methods are used for investigating the expression of both endogenous enzymes and enzyme-fusion proteins and for the detection of the enzyme in samples suspected of containing the enzyme. A protocol commonly used in these experiments is as follows:
1. The enzyme-containing sample is mixed with the sample buffer (0.075M TRIS-HCl in 50% glycerol, pH 6.8) to a concentration that is appropriate for loading the enzyme. The sample is loaded onto a 4-20% gradient acrylamide gel. The gel is run at 30 mA for approximately 30 minutes.
2. The gel is incubated in a buffer that is optimal for the enzyme being detected and that contains 1 mM of the substrate. For alkaline phosphatase the buffer used is 100 mM MOPS, 50 mM NaCl, 1 mM MgCl2, 0.1 mM ZnCl2, pH 7.5. The appearance of fluorescent bands is monitored using a hand-held ultraviolet lamp.
2). Comparing the sensitivity of enzyme detection using precipitating substrates versus standard Coomassie Blue detection. Decreasing amounts of alkaline phosphatase are loaded into the lanes of two gels. The amount of alkaline phosphatase loaded into each lane varies from […]. After electrophoresis, one gel is developed for visualization using standard Coomassie Blue-staining procedures; the other by incubation with 1 mM 8e as described above. The minimum detectable quantity of alkaline phosphatase using standard Coomassie Blue-staining methods is 1 μg. After incubation with 8e for 30 minutes, 1 ng of alkaline phosphatase is clearly visible using a handheld UV-lamp. After approximately 20 hours incubation, 0.25 ng of alkaline phosphatase can be visibly detected without any signal enhancement. These experiments indicate that incubation with the precipitating substrate provides a method for enzyme detection that is 4000 times more sensitive than standard Coomassie Blue-staining methods. […] Multiple proteins or extracts can be run in a single lane with only the enzyme specific for the synthetic substrate being detected by the staining.

SMILES: O=c1[nH]c(-c2cc(Cl)ccc2OP(=O)(O)O)nc2ccc(Cl)cc12 [8e, Ammonium 2-(5'-chloro-2'-phosphoryloxyphenyl)-6-chloro-4-(3H)-quinazolinone]
- Mc (critical concentration for precipitation) [1]: 0.1 mM
- staining of cells incubated with SLE-positive sera (HEp-2 cells): brightly fluorescent nuclei
- staining of wells incubated with negative sera (HEp-2 cells): No signal is detected
- quantity of alkaline phosphatase clearly visible on the gel (alkaline phosphatase; 1 mM substrate, 30 minutes incubation, handheld UV-lamp): 1 ng
- quantity of alkaline phosphatase visibly detected on the gel (alkaline phosphatase; 1 mM substrate, approximately 20 hours incubation, no signal enhancement): 0.25 ng
- sensitivity relative to standard Coomassie Blue-staining methods (alkaline phosphatase; enzyme detection on gel): 4000 times
- staining of negative control lanes (alkaline phosphatase; lanes loaded with 2-μg bovine serum albumin or 2-μg β-galactosidase): does not stain lanes
